Source: PMC4728504, “Determination of FVIIa-sTF Inhibitors in Toxic Microcystis Cyanobacteria by LC-MS Technique” (Marine Drugs, 2015)
Entries after “also recorded” stand apart in the source; their conditions may differ. Like-named read-outs stand apart in the source and are kept apart here.

Key:
fVIIa-sTF [1] = details: P1 moiety; cited from earlier work
Source text: We have detected aeruginosins 98A (36) and B (37) from M. aeruginosa NIES-98. The MeOH fractions from the aforementioned cyanobacteria are not active in the fVIIa-sTF assay. Thus, from our readings, we compare the fVIIa-sTF inhibitory activity of aeruginosins to phenylamidine. […] The presence of the cyclic amino alcohol moiety in aeruginosins may contribute to efficient binding against fVIIa. However, this hypothesis needs to be established by a structure–ac ...

fVIIa [2] = molecular target: T1, fVIIa (Homo sapiens, UniProt P08709); assay: fVIIa inhibitory assay (cephalin buffer, without sTF); assay type: biochemical; details: for fVIIa inhibition, slow binding, in words: 10 and 1 µg/mL, L-α-cephalin buffer, without sTF, three to six hours; for fVIIa inhibitory activity, in words: concentration not given
T1 construct: purchased Enzyme Research Laboratories, South Bend, IN, USA HFVIIa
Method: (§1) All assay experiments were done in a cold condition at 4 °C using an ice bucket until pre-incubation and reaction at 37 °C.
(§2) The fVIIa and fVIIa-sTF assays used L-α-cephalin buffer solution. The fVIIa-sTF assay was performed following the procedure by Nakagura et al. with modification. The L-α-cephalin as buffer solution was prepared as follows: Buffer (A): Five hundred milliliters (500 mL) of water was added to 6.057 g of Tris (hydroxymethyl)aminomethane (Nacalai Tesque, Kyoto, Japan) to make 100 mM Tris-HCl solution; 4.383 g NaCl (Nacalai Tesque) was added to the resulting solution to make […], and 500 mg bovine serum albumin (BSA) (Sigma, A7284, St. Louis, MO, USA) was added. The pH was adjusted to 7.40; Buffer (B): A 200 mL of Buffer A was added to 0.3329 g of CaCl2 (Nacalai Tesque). The resulting solution (Buffer B) was adjusted to pH 7.48 before it was stored at 4 °C in preparation for the next day experiment. A 30 µg/mL 3-sn-phosphatidylethanolamine from the bovine brain (Sigma, USA) or L-α-cephalin was added to Buffer B on the day of the experiment.
The 80 µL 3-sn-phosphatidylethanolamine buffer, 50 µL of […] fVIIa enzyme in a buffer, and 20 µL of sample solution were dispensed in each well of a 96-well plate (Iwaki: 3881-096, Tokyo, Japan). The 96-well plate with the solution was pre-incubated at 37 °C for 5 min separately together with 1 mM of Chromozyme t-PA (N-Methylsulfonyl-D-Phe-Gly-Arg-4-nitranilide acetate), from Roche Diagnostics (Mannheim, Germany), dissolved in water as a substrate. The 50 µL of the substrate was added, and the mixture was agitated to start the reaction.
(§3) The human factor VIIa (HFVIIa) enzyme, purchased from Enzyme Research Laboratories, South Bend, IN, USA, was added and adjusted with 20 mM Tris-HCl/0.1 M NaCl/pH 7.4. The final enzyme concentration should be 95.06 µg/mL. The 100 µL enzyme solutions were stored in plastic cryogenic vials (Iwaki: 2712-002, Tokyo, Japan) at −80 °C until use. The fVIIa enzyme, 95.06 µg/mL, and 100 µL volume solution was added to 7.822 mL of 3-sn-phosphatidylethanolamine buffer on the assay preparation.

thrombin = thrombin (Homo sapiens, UniProt P00734); assay: Thrombin inhibitory assay; assay type: biochemical
fVIIa-sTF [3] = assay: fVIIa-sTF inhibitory assay; assay type: biochemical, human
Method: as §1, §2
The same buffer preparation for fVIIa assay was used for the fVIIa-sTF inhibitory assay. The fVIIa: sTF ratio was 0.30 µg/mL: 0.39 µg/mL, and was prepared in Section 3.3.2.
as §3
The sTF or Recombinant Human Soluble Tissue Factor (F3-28H) or Human F3 was purchased from Creative Biomart, Shirley, NY, USA. The sTF was added with 10 mM PBS, pH 7.4, to make […] (25.624 µg/mL), and transferred in 300 µL volumes in plastic cryogenic vials (Iwaki: 2712-002, Tokyo, Japan), stored at −80 °C until use. The sTF solution (25.624 µg/mL, 300 µL) was added to 4.7 mL of the 3-sn-phosphatidylethanolamine buffer in an amber bottle before use.
The 30 µL buffer, 100 µL fVIIa-sTF, and 20 µL sample solutions were added to a well in a 96-well plate. The solution was pre-incubated at 37 °C for 5 min, together with 1 mM Chromozym t-PA in water as a substrate. A 50-µL substrate was added to start the reaction, agitated, and the absorbance was monitored at 405 nm using Thermo Scientific Multiskan FC microplate photometer.

fVIIa [4] = details: cited from earlier work

T1 sequence (P08709 213-466): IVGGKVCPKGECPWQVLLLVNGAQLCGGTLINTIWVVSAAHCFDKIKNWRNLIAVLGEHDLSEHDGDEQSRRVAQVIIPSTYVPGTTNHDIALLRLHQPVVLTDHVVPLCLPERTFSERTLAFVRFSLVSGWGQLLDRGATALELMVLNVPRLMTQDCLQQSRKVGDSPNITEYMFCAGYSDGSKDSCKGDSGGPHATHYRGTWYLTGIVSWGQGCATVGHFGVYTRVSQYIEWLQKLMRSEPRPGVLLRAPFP
T1 sequence (P08709 61-212): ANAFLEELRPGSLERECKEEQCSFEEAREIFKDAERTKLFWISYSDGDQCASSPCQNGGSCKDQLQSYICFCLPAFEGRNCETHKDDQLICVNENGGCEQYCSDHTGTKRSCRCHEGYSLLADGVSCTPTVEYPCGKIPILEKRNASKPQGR

## N=C(N)c1ccccc1 [phenylamidine]
fVIIa-sTF [1]
  fVIIa-sTF inhibitory activity, in words: inhibitory activity against fVIIa-sTF

## aeruginopeptin 228-B [Compound 3]
fVIIa [2]
  fVIIa inhibition, slow binding, in words: active against fVIIa with slow binding and inhibition from three to six hours

## aeruginosin K139 [Compound 30]
thrombin; aeruginosins or MeOH fractions, concentration not given
  thrombin inhibitory activity, in words: dual inhibitory activity
fVIIa [2]
  fVIIa inhibitory activity, in words: dual inhibitory activity
fVIIa-sTF [3]; dereplication by LC-MS of active fraction, not tested as pure compound
  active compound attributed by LC-MS in fVIIa-sTF active fraction: active component; also recorded: active compound

## microcystin-LR [Compound 18, reference compound]
fVIIa-sTF [3]
  fVIIa-sTF inhibition, in words: not active

## microcystin-RR [Compound 19, reference compound]
fVIIa-sTF [3]
  fVIIa-sTF inhibition, in words: not active

## microcystin-YR [Compound 20, reference compound]
fVIIa-sTF [3]
  fVIIa-sTF inhibition, in words: not active

## oscillapeptilide 97A [Compound 11]
fVIIa [2]
  fVIIa inhibition, slow binding, in words: active against fVIIa with slow binding and inhibition from three to six hours

## oscillapeptin G [Compound 10]
fVIIa [2]
  fVIIa inhibition, slow binding, in words: active against fVIIa with slow binding and inhibition from three to six hours

## oscillarin
fVIIa [4]
  fVIIa inhibition, in words: fVIIa and thrombin inhibitors

## spumigins A [Compound 21]
thrombin; 100 µg/mL, after a long-term storage
  thrombin inhibition, in words: active
fVIIa [2]
  fVIIa inhibitory activity, in words: do not inhibit
fVIIa-sTF [3]; pure compounds or compound class
  fVIIa-sTF inhibition, in words: do not inhibit
